Laboratory results published in ChEMBL document CHEMBL1201862, “PubChem BioAssay data set” (2004).
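Results reflect a 48-hour exposure of cells in 96-well plates to compound at five concentrations. GI50: concentration for 50% inhibition of growth.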 Active and inactive are the calls of the source. Rule as the data show it: active = GI50 up to about 1.1 µM and inactive = higher.

Experiments:
Assay in all cases: inhibition of tumour cell growth, NCI panel, 48 h
RXF 393 = tested on: RXF 393
SK-MEL-5 = tested on: SK-MEL-5
HCT-116 = tested on: HCT-116
NCI-H23 = tested on: NCI-H23
SF-539 = tested on: SF-539
COLO 205 = tested on: COLO 205
K562 = tested on: K562
HCT-15 = tested on: HCT-15
HCC 2998 = tested on: HCC 2998
SN12C = tested on: SN12C
SK-MEL-28 = tested on: SK-MEL-28
MCF7 = tested on: MCF7
HOP-92 = tested on: HOP-92
OVCAR-3 = tested on: OVCAR-3
NCI-H522 = tested on: NCI-H522
A549 = tested on: A549
NCI/ADR-RES = tested on: NCI/ADR-RES
TK-10 = tested on: TK-10
ACHN = tested on: ACHN
PC-3 = tested on: PC-3

| Structure (SMILES) | GI50 (RXF 393) | GI50 (SK-MEL-5) | GI50 (HCT-116) | GI50 (NCI-H23) | GI50 (SF-539) | GI50 (COLO 205) | GI50 (K562) | GI50 (HCT-15) [µM] | GI50 (HCC 2998) | GI50 (SN12C) | GI50 (SK-MEL-28) | GI50 (MCF7) | GI50 (HOP-92) | GI50 (OVCAR-3) | GI50 (NCI-H522) | GI50 (A549) | GI50 (NCI/ADR-RES) | GI50 (TK-10) | GI50 (ACHN) | GI50 (PC-3) |
| --- | --- | --- | --- | --- | --- | --- | --- | --- | --- | --- | --- | --- | --- | --- | --- | --- | --- | --- | --- | --- |
| CCC[S+]([O-])c1nc(COC(=O)NC)c(COC(=O)NC)n1C (configuration not stated) | > 100 µM (inactive) | > 100 µM (inactive) | > 100 µM (inactive) | > 100 µM (inactive) | > 100 µM (inactive) | > 100 µM (inactive) | > 100 µM (inactive) | > 100 | > 100 µM (inactive) | > 100 µM (inactive) | > 100 µM (inactive) | > 100 µM (inactive) | > 100 µM (inactive) | > 100 µM (inactive) | > 100 µM (inactive) | > 100 µM (inactive) | > 100 µM (inactive) | – | – | – |
| Cc1ccc2ccccc2c1NC1=NCCO1 | > 100 µM (inactive) | 81.5 µM (inactive) | 45.5 µM (inactive) | 90.4 µM (inactive) | 35.6 µM (inactive) | > 100 µM (inactive) | 56.9 µM (inactive) | > 100 | 82.8 µM (inactive) | > 100 µM (inactive) | > 100 µM (inactive) | 82 µM (inactive) | 11.8 µM (inactive) | – | – | > 100 µM (inactive) | > 100 µM (inactive) | > 100 µM (inactive) | 76.6 µM (inactive) | – |
| O=c1[nH]c2cc3[nH]c4ncccc4c(=O)c3cc2[nH]1 | > 10 µM (inactive) | > 10 µM (inactive) | > 10 µM (inactive) | > 10 µM (inactive) | > 10 µM (inactive) | > 10 µM (inactive) | – | > 10 | > 10 µM (inactive) | > 10 µM (inactive) | > 10 µM (inactive) | – | > 10 µM (inactive) | > 10 µM (inactive) | > 10 µM (inactive) | > 10 µM (inactive) | > 10 µM (inactive) | > 10 µM (inactive) | > 10 µM (inactive) | > 10 µM (inactive) |
| OCC1OC(OCC(O)C(O)C(O)C(/C=N/Nc2ccccc2)=N/Nc2ccccc2)C(O)C(O)C1O (configuration not stated) | – | > 100 µM (inactive) | > 100 µM (inactive) | > 100 µM (inactive) | 79.3 µM (inactive) | 44.6 µM (inactive) | – | > 100 | > 100 µM (inactive) | > 100 µM (inactive) | > 100 µM (inactive) | 63.1 µM (inactive) | 34.8 µM (inactive) | > 100 µM (inactive) | – | > 100 µM (inactive) | > 100 µM (inactive) | > 100 µM (inactive) | 51.9 µM (inactive) | > 100 µM (inactive) |
| Cc1cc(S(N)(=O)=O)c(S/C(=N\Nc2ccc([N+](=O)[O-])cc2)c2ccc(Cl)cc2)cc1Cl | 1.75 µM (inactive) | 3.48 µM (inactive) | 3.15 µM (inactive) | 2.25 µM (inactive) | 1.96 µM (inactive) | 7.87 µM (inactive) | 3.41 µM (inactive) | 4.3 | – | 3.23 µM (inactive) | 0.573 µM (active) | 2.01 µM (inactive) | 2.26 µM (inactive) | 1.74 µM (inactive) | 3.21 µM (inactive) | 2.55 µM (inactive) | 2.64 µM (inactive) | 1.79 µM (inactive) | 2.96 µM (inactive) | – |
| N#Cc1nc(C2SCCCS2)oc1N | – | > 100 µM (inactive) | > 100 µM (inactive) | – | – | – | > 100 µM (inactive) | > 100 | – | > 100 µM (inactive) | > 100 µM (inactive) | > 100 µM (inactive) | > 100 µM (inactive) | – | – | > 100 µM (inactive) | – | > 100 µM (inactive) | > 100 µM (inactive) | > 100 µM (inactive) |
| O=C1CCN(CCC(F)(F)C(F)(F)C(F)(F)C(F)(F)C(F)(F)C(F)(F)F)C(=S)N1CCC(F)(F)C(F)(F)C(F)(F)C(F)(F)C(F)(F)C(F)(F)F | > 100 µM (inactive) | > 100 µM (inactive) | > 100 µM (inactive) | > 100 µM (inactive) | > 100 µM (inactive) | > 100 µM (inactive) | > 100 µM (inactive) | – | > 100 µM (inactive) | > 100 µM (inactive) | > 100 µM (inactive) | > 100 µM (inactive) | > 100 µM (inactive) | > 100 µM (inactive) | > 100 µM (inactive) | > 100 µM (inactive) | – | > 100 µM (inactive) | > 100 µM (inactive) | > 100 µM (inactive) |
| CC1(O)CCn2c(=O)c3cc4ccccc4cc3c(=O)n2C1O (configuration not stated) | > 100 µM (inactive) | > 100 µM (inactive) | > 100 µM (inactive) | > 100 µM (inactive) | > 100 µM (inactive) | > 100 µM (inactive) | > 100 µM (inactive) | > 100 | > 100 µM (inactive) | > 100 µM (inactive) | > 100 µM (inactive) | – | 79.3 µM (inactive) | > 100 µM (inactive) | 22 µM (inactive) | > 100 µM (inactive) | – | > 100 µM (inactive) | > 100 µM (inactive) | – |
| CCOC(=O)CCC(NC(=O)c1ccc(Nc2nc3ccc(C(F)(F)F)cc3nc2-c2ccccc2)cc1)C(=O)OCC (configuration not stated) | 49 µM (inactive) | 30.4 µM (inactive) | > 100 µM (inactive) | 97.1 µM (inactive) | 45.5 µM (inactive) | 16.2 µM (inactive) | 44.2 µM (inactive) | > 100 | 28 µM (inactive) | > 100 µM (inactive) | 40.3 µM (inactive) | 40.8 µM (inactive) | 23.9 µM (inactive) | 26.6 µM (inactive) | 22.1 µM (inactive) | > 100 µM (inactive) | > 100 µM (inactive) | > 100 µM (inactive) | > 73.6 µM (inactive) | – |
| Fc1ccc2c3c([nH]c2c1)CCN(Cc1ccccc1)C3 | 16 µM (inactive) | 22.3 µM (inactive) | 18.6 µM (inactive) | 20.9 µM (inactive) | 21.7 µM (inactive) | 20.5 µM (inactive) | 18.1 µM (inactive) | 21.1 | 13.2 µM (inactive) | 19.2 µM (inactive) | 16.7 µM (inactive) | 16.7 µM (inactive) | 5.33 µM (inactive) | – | – | 22.6 µM (inactive) | 28.1 µM (inactive) | > 10 µM (inactive) | 22.8 µM (inactive) | – |
| COC(=O)C(CC12CC3CC(CC(C3)C1)C2)NC(=O)C(N)CC(=O)O (configuration not stated) | > 100 µM (inactive) | > 100 µM (inactive) | > 100 µM (inactive) | > 100 µM (inactive) | – | > 100 µM (inactive) | > 100 µM (inactive) | > 100 | > 100 µM (inactive) | > 100 µM (inactive) | > 100 µM (inactive) | – | > 100 µM (inactive) | – | > 100 µM (inactive) | > 100 µM (inactive) | > 100 µM (inactive) | > 100 µM (inactive) | > 100 µM (inactive) | > 100 µM (inactive) |
| c1ccc(CC2COC(c3cccs3)=N2)cc1 (configuration not stated) | 24.5 µM (inactive) | 57.7 µM (inactive) | 54.7 µM (inactive) | > 79.8 µM (inactive) | > 45 µM (inactive) | > 100 µM (inactive) | 46.6 µM (inactive) | 38.3 | > 73.8 µM (inactive) | > 64.4 µM (inactive) | > 100 µM (inactive) | 17.9 µM (inactive) | 21.4 µM (inactive) | > 86.5 µM (inactive) | > 84.7 µM (inactive) | 92.7 µM (inactive) | 48.5 µM (inactive) | > 90.2 µM (inactive) | 78.5 µM (inactive) | – |
| CCc1nc2ccccc2c(=O)n1/N=C(\N=N\c1ccc(Cl)cc1)c1ccccc1 | 14.2 µM (inactive) | 18.4 µM (inactive) | 17.3 µM (inactive) | > 100 µM (inactive) | 22.5 µM (inactive) | 31.3 µM (inactive) | > 10 µM (inactive) | 39.6 | 29.2 µM (inactive) | 36 µM (inactive) | 32 µM (inactive) | – | 13.9 µM (inactive) | 20.7 µM (inactive) | 20.1 µM (inactive) | 23.3 µM (inactive) | – | 31 µM (inactive) | 31.8 µM (inactive) | – |
| C=CCNC(=O)/C=C\C(=O)O | > 100 µM (inactive) | > 100 µM (inactive) | > 100 µM (inactive) | > 100 µM (inactive) | > 100 µM (inactive) | > 100 µM (inactive) | > 100 µM (inactive) | > 100 | > 100 µM (inactive) | > 100 µM (inactive) | > 100 µM (inactive) | – | > 100 µM (inactive) | > 100 µM (inactive) | > 100 µM (inactive) | > 100 µM (inactive) | – | > 100 µM (inactive) | > 100 µM (inactive) | – |
| CC1(C)OCC(C(O)C2OC(C)(C)OC2C=O)O1 (configuration not stated) | – | > 100 µM (inactive) | > 100 µM (inactive) | > 100 µM (inactive) | – | > 100 µM (inactive) | > 100 µM (inactive) | > 100 | – | > 100 µM (inactive) | > 100 µM (inactive) | > 100 µM (inactive) | – | > 100 µM (inactive) | – | > 100 µM (inactive) | > 100 µM (inactive) | > 100 µM (inactive) | > 100 µM (inactive) | > 100 µM (inactive) |
| CCN(CC)S(=O)(=O)c1ccc2[nH]c(NC(=O)OC)nc2c1 | 81.3 µM (inactive) | 98.9 µM (inactive) | 37.4 µM (inactive) | > 100 µM (inactive) | 30 µM (inactive) | 96.8 µM (inactive) | 32.1 µM (inactive) | 47.2 | 7 µM (inactive) | > 100 µM (inactive) | 37.3 µM (inactive) | – | 30.1 µM (inactive) | 80.9 µM (inactive) | > 100 µM (inactive) | 94.6 µM (inactive) | > 100 µM (inactive) | 6.47 µM (inactive) | – | – |
